We go through 2 molecules from PubChem BioAssay AID1259407 (Chemical Carcinogenesis Research Information System (CCRIS), 2018).

This data set deals with CCRIS mutagenicity, Ames/micronucleus/aberration tests. In words: CCRIS mutagenicity studies. The settings on record: Test System: AMES SALMONELLA TYPHIMURIUM

The source made the active and inactive calls. The rule behind the calls is not given here.

As for `O=C1OC(O)C(C(Br)Br)=C1Cl` (configuration not stated), the mutagenic call is “active; positive” (Strain/Indicator: TA98, Metabolic Activation: NONE, Method: STANDARD PLATE); “inactive; negative” (Strain/Indicator: TA98, Metabolic Activation: RAT LIVER S-9, AROCLOR 1254, Method: STANDARD PLATE); “active; positive” (Strain/Indicator: TA100, Metabolic Activation: NONE, Method: STANDARD PLATE); “inactive; negative” (Strain/Indicator: TA100, Metabolic Activation: RAT LIVER S-9, AROCLOR 1254, Method: STANDARD PLATE).
As to `Nc1c(C(=O)N/N=C/c2ccccc2)[nH]c2ccccc12`, the mutagenic call (Strain/Indicator: TA97, Metabolic Activation: NONE, Method: PREINCUBATION) was “inactive; negative”; the mutagenic call (Strain/Indicator: TA97, Metabolic Activation: S-9 (10%), Method: PREINCUBATION) was “inactive; negative”; the mutagenic call (Strain/Indicator: TA98, Metabolic Activation: NONE, Method: PREINCUBATION) is “inactive; negative”; the mutagenic call (Strain/Indicator: TA98, Metabolic Activation: S-9 (10%), Method: PREINCUBATION) is “inactive; negative”; the mutagenic call (Strain/Indicator: TA100, Metabolic Activation: NONE, Method: PREINCUBATION) was “inactive; negative”; the mutagenic call (Strain/Indicator: TA100, Metabolic Activation: S-9 (10%), Method: PREINCUBATION) is “inactive; negative”. The mutagenic call (Strain/Indicator: TA102, Metabolic Activation: NONE, Method: PREINCUBATION) is “inactive; negative” and the mutagenic call (Strain/Indicator: TA102, Metabolic Activation: S-9 (10%), Method: PREINCUBATION) was “inactive; negative”.
